Assay results reported in ChEMBL document CHEMBL2074048, “Identification of a region of the ileal-type sodium/bile acid cotransporter interacting with a competitive bile acid transport inhibitor” (Biochemistry, 2002).

Legend:
[1] = biological target: T1, Ileal sodium/bile acid cotransporter (Homo sapiens, UniProt Q12908); assay: (§1) TP_TRANSPORTER: inhibition of Taurocholate accumulation in ASBT-expressing HEK293 cells; type: functional, cell-based
T1 sequence (Q12908 whole entry): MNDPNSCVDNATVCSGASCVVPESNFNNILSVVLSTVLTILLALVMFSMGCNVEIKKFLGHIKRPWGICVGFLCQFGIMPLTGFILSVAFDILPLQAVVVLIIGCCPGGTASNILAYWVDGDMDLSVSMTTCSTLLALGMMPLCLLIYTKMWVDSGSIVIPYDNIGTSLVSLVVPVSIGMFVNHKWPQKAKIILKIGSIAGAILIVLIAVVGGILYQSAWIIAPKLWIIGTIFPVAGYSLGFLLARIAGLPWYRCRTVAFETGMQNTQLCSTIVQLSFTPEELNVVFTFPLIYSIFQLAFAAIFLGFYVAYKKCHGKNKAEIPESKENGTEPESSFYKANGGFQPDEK

[2] = biological target: T2, Ileal sodium/bile acid cotransporter (Mus musculus, UniProt P70172); assay: as §1; type: functional, cell-based
T2 sequence (P70172 whole entry): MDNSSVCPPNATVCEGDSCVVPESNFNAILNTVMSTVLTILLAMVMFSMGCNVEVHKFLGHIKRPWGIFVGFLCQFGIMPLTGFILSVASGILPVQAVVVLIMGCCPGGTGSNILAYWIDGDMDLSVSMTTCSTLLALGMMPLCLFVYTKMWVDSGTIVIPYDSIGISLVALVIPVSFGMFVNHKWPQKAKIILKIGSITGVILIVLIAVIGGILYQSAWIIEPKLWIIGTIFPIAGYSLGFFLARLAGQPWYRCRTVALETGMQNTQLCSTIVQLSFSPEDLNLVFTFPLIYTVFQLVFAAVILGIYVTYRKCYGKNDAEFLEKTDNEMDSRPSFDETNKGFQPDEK

SMILES: CCCC[C@]1(CC)CS(=O)(=O)c2ccccc2[C@@H](c2ccccc2)N1
- Ki [1]: 10 µM
- Ki [2]: 0.068 µM
